Where a name gives a salt, the structure may show the parent alone.
Legend:
[1] = tested on: Swiss Webster mice; test: Warm-water tail immersion assay, antagonism of morphine-induced antinociception
[2] = Plasma protein binding, human; format: in vitro ADME
Description: (§1) The ADMET assessment including the hERG inhibitory activity, plasma protein binding, in vitro metabolic stability profile, CYP inhibitory effect and mutagenic evaluation were conducted by Eurofins Panlabs, Inc.[21],[61],[69]−[71]

[3] = target: T1, CYP3A4 (Homo sapiens, UniProt P08684); test: Cytochrome P450 inhibition assay, CYP3A4; format: in vitro ADME
T1 construct: Eurofins Panlabs, Inc. (contract laboratory)
Description: as §1

[4] = target: T2, KOR (Mus musculus, UniProt P33534); test: KOR [35S]GTPγS functional assay; format: biochemical
T2 construct: expressed in transfected cells; host or cells: CHO (KOR-CHO), membrane preparation
Description: (§2) The [^35S]GTPγS functional assay was used to assess the efficacy of compounds at the MOR, KOR, and DOR. In this assay, 10 μg of MOR-CHO/KOR-CHO/DOR-CHO membrane protein was incubated in 500 μL of TME with 100 mM NaCl, 20 μM GDP, 0.1 nM [^35S]GTPγS, and varying concentrations of the compound for 1.5 h in a 30 °C water bath. Protein concentration was adjusted using the Bradford protein assay. […] After incubation, bound radioactivity was separated by filtration through GF/B glass fiber filters and measured by liquid scintillation counting. All assays were performed in duplicate and repeated at least three times. Net stimulated [35S]GTPγS binding was calculated as agonist-stimulated minus basal binding.

[5] = target: T3, MOR (Mus musculus, UniProt P42866); test: MOR [35S]GTPγS functional assay; format: biochemical
T3 construct: expressed in transfected cells; host or cells: CHO (MOR-CHO), membrane preparation
Description: as §2

[6] = In vitro metabolic stability in human liver microsomes; format: in vitro ADME; conditions: 1.0E-07 M
Description: as §1

[7] = target: T4, DOR (Homo sapiens, UniProt P41143); test: DOR [35S]GTPγS functional assay; format: biochemical
T4 construct: expressed in transfected cells; host or cells: CHO (DOR-CHO), membrane preparation
Description: as §2

[8] = tested on: typical tester strains; test: Bacterial reverse mutation assay; conditions: up to 100 μM
Description: as §1

[9] = target: T5, CYP2C9 (Homo sapiens, UniProt P11712); test: Cytochrome P450 inhibition assay, CYP2C9; format: in vitro ADME
T5 construct: Eurofins Panlabs, Inc. (contract laboratory)
Description: as §1

[10] = target: T6, κ opioid receptor (KOR) (Mus musculus, UniProt P33534); test: Competitive radioligand binding assay, KOR
T6 construct: expressed in transfected cells; host or cells: CHO (mKOR-CHO), membrane preparation
Description: The competition binding assay was performed using monoclonal mouse opioid receptors expressed in CHO cell lines (monoclonal human δ opioid receptor was used for the DOR assay).
The bound radioligand was separated using a Brandel harvester. Specific binding to the MOR, KOR, and DOR was calculated by subtracting the binding observed in the presence of 5 μM naltrexone, U50488, and SNC80, respectively, from the binding in their absence. Relative affinity values (IC50) were determined by fitting displacement binding inhibition data to a nonlinear regression model using GraphPad Prism 8.0 (GraphPad Software, San Diego, CA). The % inhibition was calculated using the formula: % inhibition = 100% - [(binding with the tested compound - nonspecific binding)/specific binding] × 100%. The IC50 values were converted to Ki values using the Cheng-Prusoff equation: Ki = IC50/ [1 + ([L*]/KD)], where [L*] is the concentration of the radioligand and KD is the KD of the radioligand.[68]

[11] = target: T7, CYP2A6 (Homo sapiens, UniProt P11509); test: Cytochrome P450 inhibition assay, CYP2A6; format: in vitro ADME
T7 construct: Eurofins Panlabs, Inc. (contract laboratory)
T7 sequence (P11509 1-494): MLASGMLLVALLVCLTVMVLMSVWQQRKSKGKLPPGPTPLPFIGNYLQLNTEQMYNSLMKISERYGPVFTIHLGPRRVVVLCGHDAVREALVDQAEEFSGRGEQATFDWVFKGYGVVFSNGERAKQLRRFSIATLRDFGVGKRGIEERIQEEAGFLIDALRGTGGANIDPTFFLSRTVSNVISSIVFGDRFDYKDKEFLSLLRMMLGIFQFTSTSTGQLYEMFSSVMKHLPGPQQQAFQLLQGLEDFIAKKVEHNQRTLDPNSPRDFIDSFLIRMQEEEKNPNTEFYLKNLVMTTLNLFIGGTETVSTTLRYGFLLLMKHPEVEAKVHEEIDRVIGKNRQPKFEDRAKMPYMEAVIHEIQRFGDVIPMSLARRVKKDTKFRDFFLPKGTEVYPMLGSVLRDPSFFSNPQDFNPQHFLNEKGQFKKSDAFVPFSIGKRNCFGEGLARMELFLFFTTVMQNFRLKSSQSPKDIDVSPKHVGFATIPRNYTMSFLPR
Description: as §1

[12] = target: T8, CYP2C19 (Homo sapiens, UniProt P33261); test: Cytochrome P450 inhibition assay, CYP2C19; format: in vitro ADME
T8 construct: Eurofins Panlabs, Inc. (contract laboratory)
Description: as §1

[13] = Plasma protein binding, Sprague-Dawley rat; format: in vitro ADME
Description: as §1

[14] = tested on: morphine-pelleted mice; test: In vivo opioid withdrawal studies in morphine-pelleted mice; parameters: species or system mouse
Description: Swiss Webster mice (six males per group, weighing 25–35 g and aged 6–8 weeks) were used. Following a previously established protocol,[20] a 75 mg morphine pellet was implanted subcutaneously into the back of each mouse, and they were allowed to recover in their home cages. Prior to testing, the mice were habituated for 30 min in an open-topped, clear Plexiglas observation chamber (26 × 26 × 26 cm^3) with lines marking the floor into quadrants. […]. Withdrawal symptoms began within 3 min of antagonist administration. Escape jumps, paw tremors, and wet dog shakes were recorded by counting their occurrences over a 20 min period for each mouse. Results are expressed as the mean ± SEM.

[15] = target: hERG potassium channel (Homo sapiens, UniProt Q12809); test: hERG inhibitory activity assay (automated patch-clamp, CHO-K1 cells)
[16] = 5 mg/kg s.c., counted over 20 min
[17] = human, CHO-K1 cells stably expressing hERG

Structure (SMILES): O=C(N[C@H]1CC[C@@]2(O)[C@H]3Cc4ccc(O)c5c4[C@@]2(CCN3CC2CC2)[C@H]1O5)c1nccs1 [Compound 6, 17-Cyclopropylmethyl-3,14β-dihydroxy-4,5α-epoxy-6α-(2′-thiazolylcarboxamido)-morphinan hydrochloride]
- AD50 (95% CL) for counteracting morphine-induced antinociception ([1]; mice, s.c., given 5 min before morphine): 0.043 (0.007–0.25) mg/kg
- Antagonism of morphine's antinociception, in words ([1]; single dose of 10 mg/kg s.c. in the presence of morphine (10 mg/kg), n = 6): significantly antagonized
- fraction unbound [2]: 0.56
- inhibition at 10 µM ([3]; 1.0E-05 M): 23.5%
- inhibition at 100 nM ([3]; 1.0E-07 M): 10.1%
- EC50 [4]: 3.83 ± 0.62 nM
- Emax ([4]; relative to 3 μM U50488H, mean ± SEM, read-out: KOR [35S]GTPγS binding % Emax of U50488H): 23.5 ± 2.03%
- EC50 [5]: 2.16 ± 0.38 nM
- Emax ([5]; read-out: MOR [35S]GTPγS Binding %Emax of DAMGO, relative to 3 μM DAMGO, mean ± SEM): 6 to 11%
- MOR [35S]GTPγS Binding %Emax of DAMGO ([5]; relative to 3 μM DAMGO, mean ± SEM): 11.3 ± 1.30%
- half-life at 100 nM [6]: > 1 h
- microsomal CLint at 100 nM [6]: < 38.5 µL/min/mg
- % Compound Remaining, mean ([6]; 15 min): 101%
- % Compound Remaining, mean ([6]; 30 min): 101%
- % Compound Remaining, mean ([6]; 45 min): 103%
- % Compound Remaining, mean ([6]; 60 min): 97%
- EC50 [7]: 23.6 ± 4.29 nM
- Emax ([7]; relative to 3 μM SNC80, mean ± SEM, read-out: DOR [35S]GTPγS binding % Emax of SNC80): 46.5 ± 2.17%
- Mutagenic potential, in words [8]: no mutagenic potential
- inhibition at 10 µM ([9]; 1.0E-05 M): 16.3%
- inhibition at 100 nM ([9]; 1.0E-07 M): 0.6%
- Ki [10]: 1.3 ± 0.12 nM
- Selectivity κ/μ ([10]; ratio of Ki values): 5
- inhibition at 10 µM ([11]; 1.0E-05 M): 7.8%
- inhibition at 100 nM ([11]; 1.0E-07 M): 6.3%
- inhibition at 10 µM ([12]; 1.0E-05 M): 78.4%
- inhibition at 100 nM ([12]; 1.0E-07 M): 13.2%
- fraction unbound [13]: 0.4
- Jumps, mean count [14, 16]: 36.8
- Paw tremors, mean count [14, 16]: 30.2
- Wet dog shake, mean count [14, 16]: 9.8
- Precipitated withdrawal symptoms, in words ([14]; s.c.): fewer wet dog shakes and paw tremors at all testing doses than 1 mg/kg NLX
- IC50 [15]: 7400 nM
- inhibition at 10 nM [15, 17]: 2.6%
- inhibition at 100 nM [15, 17]: 6%
- inhibition at 1 µM [15, 17]: 18.5%
- inhibition at 10 µM [15, 17]: 55.5%
- inhibition at 0.0001 M [15, 17]: 86.8%
